The record followed here is ChEMBL document CHEMBL5465560, “Selectivity Literature for EUbOPEN Chemogenomic Library” (2024).

For experiment [1], the target named is Tyrosine-protein kinase ITK/TSK (Homo sapiens, UniProt Q08881). In words: Selectivity interaction (Kinase counterscreening (biochemical assay)) EUB0000604a ITK. On the technique in general: Counterscreens check selectivity or assay interference.
The target in experiment [2] is Serine/threonine-protein kinase Chk2 (Homo sapiens) (UniProt O96017). As to the kind of experiment: Selectivity interaction (KinomeScan (DiscoverX)) EUB0000045b CHEK2.
Experiment [3] deals with Ribosomal protein S6 kinase alpha-2 (Homo sapiens) (UniProt Q15349). As to the kind of experiment: Selectivity interaction (KinomeScan (DiscoverX)) EUB0000045b RPS6KA2. The conditions noted are these: at 1 µM.
In experiment [4] the target is T1, Serine/threonine-protein kinase TAO1 (Homo sapiens) (UniProt Q7L7X3).
T1 sequence (whole entry): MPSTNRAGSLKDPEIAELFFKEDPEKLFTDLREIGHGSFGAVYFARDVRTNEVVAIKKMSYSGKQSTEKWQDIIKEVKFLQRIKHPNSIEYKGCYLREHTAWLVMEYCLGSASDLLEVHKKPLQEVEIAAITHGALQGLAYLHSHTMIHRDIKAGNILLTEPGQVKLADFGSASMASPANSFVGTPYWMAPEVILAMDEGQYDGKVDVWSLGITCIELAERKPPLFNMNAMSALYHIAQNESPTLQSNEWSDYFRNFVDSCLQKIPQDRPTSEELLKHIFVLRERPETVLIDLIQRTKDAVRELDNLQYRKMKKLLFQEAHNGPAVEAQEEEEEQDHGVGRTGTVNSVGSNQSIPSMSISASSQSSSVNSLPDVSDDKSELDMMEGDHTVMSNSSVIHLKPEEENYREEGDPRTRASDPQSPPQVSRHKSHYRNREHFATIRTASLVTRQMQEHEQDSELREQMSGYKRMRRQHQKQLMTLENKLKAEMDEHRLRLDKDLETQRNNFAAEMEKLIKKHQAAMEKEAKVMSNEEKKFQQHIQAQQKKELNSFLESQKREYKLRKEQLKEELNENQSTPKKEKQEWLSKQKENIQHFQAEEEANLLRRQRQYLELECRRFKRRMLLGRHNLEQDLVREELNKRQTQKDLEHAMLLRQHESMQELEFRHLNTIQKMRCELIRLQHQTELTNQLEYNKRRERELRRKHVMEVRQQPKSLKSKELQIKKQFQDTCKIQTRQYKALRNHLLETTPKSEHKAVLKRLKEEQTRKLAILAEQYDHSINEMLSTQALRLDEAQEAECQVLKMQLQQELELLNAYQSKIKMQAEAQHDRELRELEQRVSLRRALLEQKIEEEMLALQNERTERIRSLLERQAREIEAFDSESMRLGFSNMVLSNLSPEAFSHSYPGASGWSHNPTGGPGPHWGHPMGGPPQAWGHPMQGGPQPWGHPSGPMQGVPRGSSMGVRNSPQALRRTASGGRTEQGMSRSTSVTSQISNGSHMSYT
As to the kind of experiment: Selectivity interaction (KinomeScan (DiscoverX)) EUB0000045b TAOK1.

The target of experiment [5] is Serine/threonine-protein kinase SIK3 (Homo sapiens) (UniProt Q9Y2K2). In words: Selectivity interaction (ProQinase) EUB0000171b SIK3.
The target in experiment [6] is T2, Receptor-interacting serine/threonine-protein kinase 1 (Homo sapiens) (UniProt Q13546).
T2 sequence (whole entry): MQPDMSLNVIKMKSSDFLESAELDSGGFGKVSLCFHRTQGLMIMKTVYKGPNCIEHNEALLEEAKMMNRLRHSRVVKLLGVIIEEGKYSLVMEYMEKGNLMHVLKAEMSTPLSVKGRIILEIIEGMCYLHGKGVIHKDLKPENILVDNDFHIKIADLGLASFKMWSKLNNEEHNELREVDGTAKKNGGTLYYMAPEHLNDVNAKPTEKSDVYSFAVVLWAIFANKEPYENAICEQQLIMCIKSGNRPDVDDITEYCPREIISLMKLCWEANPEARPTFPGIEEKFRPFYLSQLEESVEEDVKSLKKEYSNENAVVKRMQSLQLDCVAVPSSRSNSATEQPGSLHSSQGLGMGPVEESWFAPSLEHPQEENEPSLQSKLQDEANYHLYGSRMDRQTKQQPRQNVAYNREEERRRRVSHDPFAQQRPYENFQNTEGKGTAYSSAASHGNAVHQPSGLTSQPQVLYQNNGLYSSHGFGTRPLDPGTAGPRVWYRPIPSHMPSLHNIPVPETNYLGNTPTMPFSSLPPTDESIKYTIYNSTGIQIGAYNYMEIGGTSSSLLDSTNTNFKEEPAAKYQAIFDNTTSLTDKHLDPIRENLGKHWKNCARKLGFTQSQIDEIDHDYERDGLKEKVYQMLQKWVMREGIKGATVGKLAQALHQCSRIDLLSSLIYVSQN
As to the kind of experiment: Selectivity interaction (Ambit KINOMEscan and KiNATiv profiling in Jurkat cells) EUB0000090b RIPK1. Conditions: at 1 µM. The format is cell-based.

For experiment [7], the target named is Serine/threonine-protein kinase N1 (Homo sapiens, UniProt Q16512). In words: Selectivity interaction (KinomeScan (DiscoverX)) EUB0000229b PKN1. The conditions noted are these: at 10 µM.
The target of experiment [8] is Protein-tyrosine kinase 2-beta (Homo sapiens) (UniProt Q14289). As to the kind of experiment: Selectivity interaction (KinomeScan (DiscoverX)) EUB0000229b PTK2B. The conditions noted are these: at 10 µM.
Chain of Protein-tyrosine kinase 2-beta (Homo sapiens) (Q14289 whole entry, looked up): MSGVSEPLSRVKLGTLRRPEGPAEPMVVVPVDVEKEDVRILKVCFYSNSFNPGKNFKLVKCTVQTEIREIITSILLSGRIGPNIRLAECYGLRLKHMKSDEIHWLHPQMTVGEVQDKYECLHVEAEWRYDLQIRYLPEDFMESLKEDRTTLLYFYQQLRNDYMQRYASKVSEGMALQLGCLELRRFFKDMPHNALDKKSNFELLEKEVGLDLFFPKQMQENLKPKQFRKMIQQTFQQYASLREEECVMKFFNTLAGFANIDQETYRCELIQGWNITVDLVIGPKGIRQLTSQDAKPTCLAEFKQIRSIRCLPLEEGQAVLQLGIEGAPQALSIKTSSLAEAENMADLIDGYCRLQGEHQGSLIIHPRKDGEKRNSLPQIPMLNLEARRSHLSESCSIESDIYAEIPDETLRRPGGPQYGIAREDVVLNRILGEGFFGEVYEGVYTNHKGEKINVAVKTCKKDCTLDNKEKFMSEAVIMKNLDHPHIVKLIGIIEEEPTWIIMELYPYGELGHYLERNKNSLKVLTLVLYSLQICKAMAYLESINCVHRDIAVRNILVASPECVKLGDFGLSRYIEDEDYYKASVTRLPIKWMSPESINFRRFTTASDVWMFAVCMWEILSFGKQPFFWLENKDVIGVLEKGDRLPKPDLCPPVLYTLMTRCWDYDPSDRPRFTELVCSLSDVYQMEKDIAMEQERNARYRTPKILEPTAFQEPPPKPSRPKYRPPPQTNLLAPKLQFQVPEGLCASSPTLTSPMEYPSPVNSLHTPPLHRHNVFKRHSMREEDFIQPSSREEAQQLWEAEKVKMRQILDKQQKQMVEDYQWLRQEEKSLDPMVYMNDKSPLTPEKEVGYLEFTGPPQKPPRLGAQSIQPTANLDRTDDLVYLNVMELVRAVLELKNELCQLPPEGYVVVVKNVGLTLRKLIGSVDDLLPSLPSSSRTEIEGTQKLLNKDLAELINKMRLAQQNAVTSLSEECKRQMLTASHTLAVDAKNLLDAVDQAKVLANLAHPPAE

Chain of Serine/threonine-protein kinase Chk2 (Homo sapiens) (O96017 whole entry): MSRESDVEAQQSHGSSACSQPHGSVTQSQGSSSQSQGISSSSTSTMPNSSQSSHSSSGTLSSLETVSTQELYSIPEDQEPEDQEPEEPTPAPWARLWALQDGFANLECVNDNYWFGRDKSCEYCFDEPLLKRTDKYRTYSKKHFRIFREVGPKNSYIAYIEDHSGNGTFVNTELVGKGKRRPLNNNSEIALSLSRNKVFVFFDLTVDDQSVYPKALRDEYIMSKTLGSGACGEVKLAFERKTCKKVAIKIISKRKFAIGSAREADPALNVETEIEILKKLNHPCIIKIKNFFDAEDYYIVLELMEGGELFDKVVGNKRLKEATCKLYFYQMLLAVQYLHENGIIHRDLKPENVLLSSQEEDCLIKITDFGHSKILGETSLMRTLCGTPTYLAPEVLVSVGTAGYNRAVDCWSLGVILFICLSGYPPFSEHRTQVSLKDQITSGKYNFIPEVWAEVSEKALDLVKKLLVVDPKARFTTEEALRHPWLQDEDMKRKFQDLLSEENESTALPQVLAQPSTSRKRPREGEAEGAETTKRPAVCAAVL
Chain of Serine/threonine-protein kinase SIK3 (Homo sapiens) (Q9Y2K2 whole entry, looked up): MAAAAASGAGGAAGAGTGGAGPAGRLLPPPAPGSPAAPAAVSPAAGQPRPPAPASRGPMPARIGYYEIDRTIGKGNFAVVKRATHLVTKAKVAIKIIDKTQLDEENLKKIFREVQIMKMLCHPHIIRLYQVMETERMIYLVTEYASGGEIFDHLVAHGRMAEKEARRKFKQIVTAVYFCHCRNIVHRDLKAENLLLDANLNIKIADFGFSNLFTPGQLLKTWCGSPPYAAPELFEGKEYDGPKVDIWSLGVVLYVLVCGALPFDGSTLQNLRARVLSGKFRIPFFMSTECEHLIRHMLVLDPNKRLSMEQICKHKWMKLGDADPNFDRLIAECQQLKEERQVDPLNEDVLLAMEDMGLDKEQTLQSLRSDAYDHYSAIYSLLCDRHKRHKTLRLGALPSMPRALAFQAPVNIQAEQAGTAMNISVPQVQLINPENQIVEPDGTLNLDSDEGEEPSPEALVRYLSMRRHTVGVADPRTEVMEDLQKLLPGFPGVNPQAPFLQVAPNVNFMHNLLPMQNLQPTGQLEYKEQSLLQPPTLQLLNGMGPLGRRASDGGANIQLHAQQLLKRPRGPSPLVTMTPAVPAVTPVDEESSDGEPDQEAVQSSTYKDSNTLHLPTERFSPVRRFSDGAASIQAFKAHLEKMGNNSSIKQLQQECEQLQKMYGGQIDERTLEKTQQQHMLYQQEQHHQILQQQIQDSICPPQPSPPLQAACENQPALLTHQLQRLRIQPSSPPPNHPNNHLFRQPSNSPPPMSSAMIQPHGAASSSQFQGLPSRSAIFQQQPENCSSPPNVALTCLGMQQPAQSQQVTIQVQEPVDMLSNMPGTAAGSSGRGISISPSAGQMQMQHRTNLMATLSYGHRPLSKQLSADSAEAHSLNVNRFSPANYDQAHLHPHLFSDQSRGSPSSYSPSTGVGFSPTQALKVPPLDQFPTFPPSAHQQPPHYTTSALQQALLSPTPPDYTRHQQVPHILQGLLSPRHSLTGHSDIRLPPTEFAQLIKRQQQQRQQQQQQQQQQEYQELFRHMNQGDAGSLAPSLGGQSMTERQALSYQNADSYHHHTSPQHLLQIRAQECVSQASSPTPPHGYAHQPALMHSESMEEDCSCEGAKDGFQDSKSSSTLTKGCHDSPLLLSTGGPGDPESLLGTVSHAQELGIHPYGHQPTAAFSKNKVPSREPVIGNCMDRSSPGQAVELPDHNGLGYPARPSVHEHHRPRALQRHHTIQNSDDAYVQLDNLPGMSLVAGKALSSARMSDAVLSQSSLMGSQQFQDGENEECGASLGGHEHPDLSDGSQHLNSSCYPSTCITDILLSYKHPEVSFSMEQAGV
Chain of Ribosomal protein S6 kinase alpha-2 (Homo sapiens) (Q15349 whole entry): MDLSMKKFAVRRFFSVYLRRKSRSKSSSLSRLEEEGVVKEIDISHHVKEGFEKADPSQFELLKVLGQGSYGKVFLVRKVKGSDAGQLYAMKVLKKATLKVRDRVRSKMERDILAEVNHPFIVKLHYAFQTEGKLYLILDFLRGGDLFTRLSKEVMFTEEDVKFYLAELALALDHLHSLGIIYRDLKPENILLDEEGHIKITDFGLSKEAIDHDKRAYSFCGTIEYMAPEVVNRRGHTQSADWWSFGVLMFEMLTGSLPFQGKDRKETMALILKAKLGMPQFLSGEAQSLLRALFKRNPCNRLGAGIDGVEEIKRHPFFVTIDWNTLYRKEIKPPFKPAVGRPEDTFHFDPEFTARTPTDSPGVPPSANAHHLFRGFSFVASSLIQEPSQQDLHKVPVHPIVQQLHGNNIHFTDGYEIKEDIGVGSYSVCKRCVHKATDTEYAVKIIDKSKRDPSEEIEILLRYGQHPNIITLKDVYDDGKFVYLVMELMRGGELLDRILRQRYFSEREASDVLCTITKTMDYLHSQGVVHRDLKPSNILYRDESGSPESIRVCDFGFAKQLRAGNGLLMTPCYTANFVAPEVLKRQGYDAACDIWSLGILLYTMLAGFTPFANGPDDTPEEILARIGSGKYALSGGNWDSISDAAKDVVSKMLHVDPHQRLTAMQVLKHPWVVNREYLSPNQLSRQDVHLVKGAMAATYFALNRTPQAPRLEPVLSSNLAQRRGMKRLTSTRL
Chain of Serine/threonine-protein kinase N1 (Q16512 2-942 limits assumed): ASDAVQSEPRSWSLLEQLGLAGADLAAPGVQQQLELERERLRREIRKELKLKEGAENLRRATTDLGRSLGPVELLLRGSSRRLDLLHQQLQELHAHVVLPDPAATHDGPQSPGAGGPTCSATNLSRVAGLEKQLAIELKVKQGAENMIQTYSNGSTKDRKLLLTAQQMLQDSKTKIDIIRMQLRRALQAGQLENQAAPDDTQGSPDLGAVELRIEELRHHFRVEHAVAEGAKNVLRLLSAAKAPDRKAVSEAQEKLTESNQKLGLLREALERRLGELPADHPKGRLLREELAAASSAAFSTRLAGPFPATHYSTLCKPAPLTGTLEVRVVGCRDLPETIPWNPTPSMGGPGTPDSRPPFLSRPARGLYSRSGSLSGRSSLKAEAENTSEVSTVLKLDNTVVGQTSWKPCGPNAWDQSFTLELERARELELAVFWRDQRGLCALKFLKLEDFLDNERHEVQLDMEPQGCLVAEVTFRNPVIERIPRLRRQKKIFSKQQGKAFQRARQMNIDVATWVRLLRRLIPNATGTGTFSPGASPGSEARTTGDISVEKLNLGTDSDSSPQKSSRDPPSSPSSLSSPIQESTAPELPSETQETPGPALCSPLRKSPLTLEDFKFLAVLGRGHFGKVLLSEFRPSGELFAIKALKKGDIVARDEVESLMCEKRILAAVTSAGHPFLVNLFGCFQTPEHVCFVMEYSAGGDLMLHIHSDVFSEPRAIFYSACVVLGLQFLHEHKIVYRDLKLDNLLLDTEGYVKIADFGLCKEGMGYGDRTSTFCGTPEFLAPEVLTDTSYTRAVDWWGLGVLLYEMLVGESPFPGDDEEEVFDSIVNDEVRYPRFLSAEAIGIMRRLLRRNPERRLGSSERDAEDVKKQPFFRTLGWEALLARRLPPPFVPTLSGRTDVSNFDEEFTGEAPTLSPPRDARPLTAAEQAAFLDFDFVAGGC

For orientation: Ki means the equilibrium dissociation constant of an inhibitor or competing ligand from its target. `Cc1cnc(Nc2ccc(F)cc2Cl)nc1-c1c[nH]c(C(=O)N[C@H](CO)c2cccc(Cl)c2)c1` had an inhibitory constant (Ki) in experiment [1] above 4 µM.

Regarding `C=CC(=O)Nc1cc(-n2c(=O)ccc3cnc4ccc(-c5ccc(NS(C)(=O)=O)cc5)cc4c32)ccc1C`, the % of control in experiment [2] (at 1 µM) amounted to 100%; in experiment [2] (at 10 µM), 100%; in experiment [3], 90%; in experiment [4] (at 1 µM) it was 100%; in experiment [4] (at 10 µM), 79%.

Regarding `C=CC(=O)Nc1cccc(C(=O)Nc2ccc(Nc3cc(-c4[nH]c(SC)nc4C)ccn3)cc2)c1`, the % of control in experiment [5] (at 1 µM) was determined as 65%; in experiment [5] (at 5 µM), 47%.

The molecule `CN(C)C/C=C/C(=O)Nc1ccc(C(=O)N2CCCC(Nc3ncc(Cl)c(-c4c[nH]c5ccccc45)n3)C2)cc1` (stereo unspecified) yielded a % of control in experiment [6] of 94%.

Turning to `COc1cc(N(C)c2ccnc3ccc(C(F)(F)F)cc23)cc(OC)c1OC`, the results for the % binding in experiment [7] and in experiment [8] were 81% and 95%, respectively.
